According to US10034886B2, “GLP-1 receptor modulators” (Celgene International II SÀRL, priority 2014, dated 2018):

Molecular target: T1, GLP-1R (Homo sapiens, UniProt P43220)
T1 construct: host or cells: GLP-1R CRE-bla CHO-K1 cells
Test: EC20 GLP-1(9-36) PAM cAMP assay: dose response of compound in the presence of fixed concentration of GLP-1(9-36)
Type: cell-based
Settings: GLP-1R CRE-bla CHO-K1 cells, compound dose response with fixed concentration of GLP-1(9-36), read-out: EC20 GLP-1(9-36) PAM EC50
Method in brief: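 Positive allosteric modulation read as cAMP accumulation: compound titrations (12 points) combined with an EC20 level of GLP-1(9-36) on CHO-K1 GLP-1R CRE-bla cells, IBMX present, 30 min, 37 °C, pH 7.4 buffer. Luminescence converted to cAMP via standards; non-linear fit gave EC50 and Emax.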

T1 sequence (P43220 24-463): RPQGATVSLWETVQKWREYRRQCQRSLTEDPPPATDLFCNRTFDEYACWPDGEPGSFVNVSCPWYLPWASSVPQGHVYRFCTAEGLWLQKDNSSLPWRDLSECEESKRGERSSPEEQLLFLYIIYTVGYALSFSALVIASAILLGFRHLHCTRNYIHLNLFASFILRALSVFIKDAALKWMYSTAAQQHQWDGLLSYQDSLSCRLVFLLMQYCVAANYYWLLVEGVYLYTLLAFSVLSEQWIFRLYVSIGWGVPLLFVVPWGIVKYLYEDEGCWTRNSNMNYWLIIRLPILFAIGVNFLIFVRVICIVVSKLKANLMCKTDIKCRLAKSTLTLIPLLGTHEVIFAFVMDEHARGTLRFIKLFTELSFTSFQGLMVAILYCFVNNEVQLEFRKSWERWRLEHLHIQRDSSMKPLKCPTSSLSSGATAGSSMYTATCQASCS
T1 sequence (P01275 100-127 partner limits assumed): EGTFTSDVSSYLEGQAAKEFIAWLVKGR

Compound	EC50 [nM]
CCCCCOc1ccc(-c2ccc(-c3cnc(-c4ccc(C[C@H](NC(=O)c5ccc(C(C)(C)C)s5)C(=O)N[C@H](C)C(=O)O)cc4)nc3)cc2)cc1 [Compound 1309]	800 to 2500
CCC[C@H]1CC[C@H](C2CCN(c3cnc(-c4ccc(C[C@H](NC(=O)c5ccc(OC(C)(C)C)cc5)C(=O)N5CC(C(=O)O)C5)cc4)nc3)CC2)CC1 [Compound 1524]	< 800
CC(C)(C)c1ccc(C(=O)N[C@@H](Cc2ccc(-c3ncc(-c4ccc(-c5cccc(OC(F)(F)F)c5)cc4F)cn3)cc2)C(=O)N2CC(C(=O)O)C2)s1 [Compound 1215]	< 800
C[C@@H](NC(=O)[C@H](Cc1ccc(-c2ncc(OCc3ccc(C(F)(F)F)cc3)cn2)cc1)NC(=O)c1ccc(C(C)(C)C)s1)C(=O)O [Compound 1272]	5000 to 10000
CC[C@H]1CC[C@H](c2ccc(-c3cnc(-c4ccc(C[C@H](NC(=O)c5ccc(C(C)C)cc5)C(=O)O)cc4)nc3)cc2)CC1 [Compound 1387]	< 800
CCCCc1ccc(-c2ccc(-c3cnc(-c4ccc(C[C@H](NC(=O)c5ccc(C(C)(C)C)s5)C(=O)N5CC(C(=O)O)C5)cc4)nc3)cc2)cc1 [Compound 1394]	< 800
CC[C@H]1CC[C@H](c2ccc(-c3cnc(-c4ccc(C[C@H](NC(=O)c5ccc(C(C)(C)C#N)s5)C(=O)O)cc4)nc3)cc2)CC1 [Compound 1373]	< 800
CCCc1ccc(C(=O)N[C@@H](Cc2ccc(-c3ncc(N4CCC([C@H]5CC[C@H](CCC)CC5)CC4)cn3)cc2)C(=O)N2CC(C(=O)O)C2)cc1 [Compound 1521]	< 800
CC[C@H]1CC[C@H](c2ccc(-c3cnc(-c4ccc(C[C@H](NC(=O)c5ccc(C(C)(C)C#N)s5)C(=O)N5CC(C(=O)O)C5)cc4)nc3)cc2)CC1 [Compound 1339]	< 800
C[C@@H](NC(=O)[C@H](Cc1ccc(-c2ncc(-c3ccc(N4CCOCC4)cc3)cn2)cc1)NC(=O)c1ccc(C(C)(C)C)s1)C(=O)O [Compound 1307]	800 to 2500
CCC[C@H]1CC[C@H](N2CCN(c3cnc(-c4ccc(C[C@H](NC(=O)c5ccc(C(C)(C)C)s5)C(=O)N5CC(C(=O)O)C5)cc4)nc3)CC2)CC1 [Compound 1435]	800 to 2500
CCCc1ccc(-c2ccc(-c3cnc(-c4ccc(C[C@H](NC(=O)c5ccc(C(C)(C)CC)cc5)C(=O)N5CC(C(=O)O)C5)cc4)nc3)c(F)c2)cc1 [Compound 1402]	< 800
CCC[C@H]1CC[C@H](C2CCN(c3cnc(-c4ccc(C[C@H](NC(=O)c5ccc(C(C)(C)C)s5)C(=O)N5CCCC[C@H]5C(=O)O)cc4)nc3)CC2)CC1 [Compound 1455]	< 800
CC(C)(C)c1ccc(C(=O)N[C@@H](Cc2ccc(-c3ncc(-c4ccc(-c5cccc(C(F)(F)F)c5)cc4)cn3)cc2)C(=O)O)s1 [Compound 1347]	< 800

Same assay, conditions: dose response of compound in presence of fixed concentration of GLP-1(9-36), GLP-1R CRE-bla CHO-K1 cells, read-out: EC20 GLP-1(9-36) PAM EC50

Compound	EC50 [nM]
CC(C)(C)c1ccc(C(=O)N[C@@H](Cc2ccc(-c3ncc(-c4ccc(-c5ccccc5Cl)cc4F)cn3)cc2)C(=O)N2CC(C(=O)O)C2)s1 [Compound 1195]	< 800
CC(C)(C)c1ccc(C(=O)N[C@@H](Cc2ccc(-c3ncc(-c4nc(-c5cccc(Cl)c5)no4)cn3)cc2)C(=O)NCCC(=O)O)cc1 [Compound 758]	2500 to 5000
CCCCCCCOc1ccc(-c2cnc(-c3ccc(C[C@H](NC(=O)c4ccc(C(C)(C)C)s4)C(=O)NC4CNC4)cc3)nc2)cc1 [Compound 985]	2500 to 5000
CCCCCCCOc1ccc(-c2cnc(-c3ccc(C[C@H](NC(=O)c4ccc(C(C)(C)C)s4)C(=O)NCCNC(C)=O)cc3)nc2)cc1 [Compound 389]	800 to 2500
CCCCCCCOc1ccc(-c2cnc(-c3ccc(C[C@H](NC(=O)c4ccc(OC)cc4)C(=O)N4CC(C(=O)O)C4)cc3)nc2)cc1 [Compound 1109]	800 to 2500
CCCCCCCOc1ccc(-c2cnc(-c3ccc(C[C@H](NC(=O)c4ccc(C(C)(C)C)cc4)C(=O)NC(CC(=O)O)C4CCOCC4)cc3)nc2)cc1 (stereo partly shown) [Compound 551]	< 800
CCC(CC)Oc1ccc(-c2cnc(-c3ccc(C[C@H](NC(=O)c4ccc(C(C)(C)C)s4)C(=O)N4CC(C(=O)O)C4)cc3)nc2)cc1 [Compound 919]	5000 to 10000
CCCCOc1cccc(-c2noc(-c3cnc(-c4ccc(C[C@H](NC(=O)c5ccc(C(C)(C)C)cc5)C(=O)NCCC(=O)O)cc4)nc3)n2)c1 [Compound 759]	800 to 2500
CCCCCCCOc1ccc(-c2cnc(-c3ccc(C[C@H](NC(=O)c4ccc(CCC)s4)C(=O)N4CC[C@H](C(=O)O)C4)cc3)nc2)cc1 [Compound 864]	800 to 2500
CCCCCCCOc1ccc(-c2cnc(-c3ccc(C[C@H](NC(=O)c4ccc(C(C)(C)C)s4)C(=O)NC(CCCC(=O)O)C(=O)O)cc3)nc2)cc1 (stereo partly shown) [Compound 633]	800 to 2500
CCCCCCCOc1ccc(-c2cnc(-c3ccc(C[C@H](NC(=O)c4ccc(C(C)(C)C)cc4)C(=O)NC(C(=O)O)c4cccnc4)cc3)nc2)cc1 (stereo partly shown) [Compound 468]	< 800
CCCCCCCOc1ccc(-c2cnc(-c3ccc(C[C@H](NC(=O)c4ccc(C(C)(C)C)s4)C(=O)NC(C(=O)O)c4cccs4)cc3)nc2)cc1 (stereo partly shown) [Compound 600]	< 800
CC(C)CCOc1ccc(-c2cnc(-c3ccc(C[C@H](NC(=O)c4ccc(C(C)(C)C)s4)C(=O)NC(C(=O)O)C(O)c4ccccc4)cc3)nc2)cc1 (stereo partly shown) [Compound 942]	2500 to 5000
CC(C)(C)c1ccc(-c2cnc(-c3ccc(C[C@H](NC(=O)c4ccc(C(C)(C)C)s4)C(=O)N[C@H]4CCC[C@H]4C(=O)O)cc3)nc2)cc1 [Compound 382]	800 to 2500
CCCCCCCOc1ccc(-c2cnc(-c3ccc(C[C@H](NC(=O)c4ccc(C(C)(C)C)s4)C(=O)N4CC(C(=O)NS(C)(=O)=O)C4)cc3)nc2)cc1 [Compound 650]	< 800
CCCCCCCOc1ccc(-c2cnc(-c3ccc(C[C@H](NC(=O)c4ccc(O)c(F)c4)C(=O)N4CC[C@H](C(=O)O)C4)cc3)nc2)cc1 [Compound 1096]	800 to 2500
CCCCCCCOc1ccc(-c2cnc(-c3ccc(C[C@H](NC(=O)c4ccc(C(C)(C)C)s4)C(=O)N4CC(CN(C)C)C4)cc3)nc2)cc1 [Compound 975]	5000 to 10000
CCCCCCCOc1ccc2nc(-c3ccc(C[C@H](NC(=O)c4ccc(C(C)(C)C)cc4)C(=O)O)cc3)ncc2c1 [Compound 673, (S)-2-(4-(tert-butyl)benzamido)-3-(4-(6-(heptyloxy)quinazolin-2-yl)phenyl)propanoic acid]	5000 to 10000

Compound	EC50 [nM]
C[C@@H](NC(=O)[C@H](Cc1ccc(-c2ncc(-c3ccc(OCc4ccccc4)c(F)c3)cn2)cc1)NC(=O)c1ccc(C(C)(C)C)s1)C(=O)O [Compound 994]	800 to 2500
CCCc1ccc(-c2ccc(-c3cnc(-c4ccc(C[C@H](NC(=O)c5ccc(C(C)(C)C)s5)C(=O)O)cc4)nc3)c(F)c2)cc1 [Compound 1061]	2500 to 5000
CCCCCCCOc1ccc(-c2cnc(-c3ccc(C[C@H](NC(=O)c4ccc(CCC)cc4)C(=O)N4CCC[C@H]4C(=O)O)cc3)nc2)cc1 [Compound 1073]	800 to 2500
CCCCCCCOc1ccc(-c2cnc(-c3ccc(C[C@H](NC(=O)c4ccc(Cc5ccccc5)cc4)C(=O)N[C@H](C)C(=O)O)cc3)nc2)cc1 [Compound 825]	< 800
CC(C)CCCOc1ccc(-c2cnc(-c3ccc(C[C@H](NC(=O)c4ccc(C(C)(C)C)s4)C(=O)N4CC[C@H](C(=O)O)C4)cc3)nc2)cc1 [Compound 773]	800 to 2500
CC[C@H]1CC[C@H](c2ccc(-c3cnc(-c4ccc(C[C@H](NC(=O)c5ccc(C(C)(C)C)s5)C(=O)O)cc4)nc3)cc2)CC1 [Compound 1058, (S)-2-(5-(tert-butyl)thiophene-2-carboxamido)-3-(4-(5-(4-((1r,4r)-4-ethylcyclohexyl)phenyl)pyrimidin-2-yl)phenyl)propanoic acid]	< 800
CC(C)(C)c1ccc(C(=O)N[C@@H](Cc2ccc(-c3ncc(-c4ccc(-c5ccccc5F)cc4F)cn3)cc2)C(=O)N2CC(C(=O)O)C2)s1 [Compound 1194]	< 800
CCCCCCCOc1ccc(-c2cnc(-c3ccc(C[C@H](NC(=O)c4ccc(C(C)(C)C)s4)C(=O)NC(C(=O)O)C(O)c4ccc(C)cc4)cc3)nc2)cc1 (stereo partly shown) [Compound 900]	800 to 2500
CCCCCCCOc1ccc(-c2cnc(-c3ccc(C[C@@H](NC(=O)c4ccc(C(C)(C)C)cc4)C(=O)NCCC(=O)O)cc3)nc2)cc1 [Compound 433]	2500 to 5000
CCCCCCCOc1ccc(-c2cnc(-c3ccc(C[C@H](NC(=O)c4ccc(CCC)cc4)C(=O)N4CC[C@H](C(=O)O)C4)cc3)nc2)cc1 [Compound 853]	800 to 2500
CCCCCCNc1ccc(-c2cnc(-c3ccc(C[C@H](NC(=O)c4ccc(C(C)(C)C)cc4)C(=O)N[C@H](C)C(=O)O)cc3)nc2)cc1 [Compound 729]	800 to 2500
CCCCCCCOc1ccc(-c2cnc(-c3ccc(C[C@H](NC(=O)c4ccc(C(C)(C)C)s4)C(=O)N[C@H](CN)C(=O)O)cc3)nc2)cc1 [Compound 392]	2500 to 5000
CCCCCCCOc1ccc(-c2cnc(-c3ccc(C(NC(=O)c4ccc(C(C)(C)C)s4)C(=O)O)cc3)nc2)cc1 (stereo not shown) [Compound 289, 2-(5-(tert-butyl)thiophene-2-carboxamido)-2-(4-(5-(4-(heptyloxy)phenyl)pyrimidin-2-yl)phenyl)acetic acid]	2500 to 5000
CCc1ccc(C(=O)N[C@@H](Cc2ccc(-c3ncc(-c4ccc([C@H]5CC[C@H](CC)CC5)cc4)cn3)cc2)C(=O)N2CC(C(=O)O)C2)cc1 [Compound 1168]	< 800
CCCCCCCOc1ccc(-c2cnc(-c3ccc(C[C@H](NC(=O)c4ccc(C(C)(C)C)s4)C(=O)NC(C(=O)O)C(O)C(C)(C)C)cc3)nc2)cc1 (stereo partly shown) [Compound 918]	5000 to 10000
CCCCCCCOc1ccc(-c2cnc(-c3ccc(C[C@H](NC(=O)c4ccc(C(C)(C)C)s4)C(=O)N[C@@H](CC(=O)O)C(=O)NC)cc3)nc2)cc1 [Compound 526]	< 800
CC(C)(C)c1ccc(C(=O)N[C@@H](Cc2ccc(-c3ncc(-c4ccc(OCCC5CCCC5)cc4)cn3)cc2)C(=O)NC(C(=O)O)C(O)c2ccccc2)s1 (stereo partly shown) [Compound 939]	2500 to 5000
